This is an account of results in patent publication US11414459B2 (Kinoxis Therapeutics Pty Ltd, priority 2017, dated 2022).

Where a SMILES comes first, the peptide text is derived from it. Bridges are numbered along the chain shown (N, C = ends). Bounds are passed on as bounds.

Assay [1] deals with T1, V1aR (V1a receptor) (Homo sapiens, UniProt P37288).
T1 construct: expressed in transfected cells; host or cells: HEK293
As to the kind of experiment: HTRF-IP1 accumulation assay, agonist assessment. In kind it is cell-based. The conditions noted are these: for EC50: V1a receptor-expressing HEK293 cells, IP1 accumulation, 1 h incubation. How it is done:
HTRF-IP1 Accumulation Assay Experimental Procedures
OT or V1a receptor-expressing HEK293 cells were seeded onto clear, poly-L-lysine (100 μg/mL)-coated 384 well plates at a density of 8.75×10^3 cells per well. Levels of receptor activation induced by compounds were assessed at concentrations ranging from 1 nM to 100 μM using the HTRF IP-One kit (CisBio International, Bagnolssur-Cze, France), according to manufacturers protocol. For agonist assessment, cells were incubated with compounds for 1 h prior to the addition of Ab-Cryptate and IP1-d2. The ligand concentration that induced a 50% maximal response (EC50) was used to evaluate functional effects across compounds. […] Cells were then incubated for a further 1 h, and Ab-Cryptate and IP1-d2 added.
(In general: Time-resolved FRET reads energy transfer from a long-lived donor to a nearby acceptor.)

The target in assay [2] is T1, V1aR (V1a receptor). As to the kind of experiment: Competition radioligand binding assay, [3H]-vasopressin displacement. To be noted: membranes from V1a receptor-expressing HEK293 cells, [3H]-vasopressin 2 nM. How it is done:
(§1) Competition Radioligand Binding Assay Experimental Procedures
(§2) Reactions were incubated for 90 min at 4 C to reach equilibrium, and terminated by rapid filtration over glass fibre filters (Whatman GF/A […]), and washing with ice-cold reaction buffer. Radioactivity was detected after soaking filters in Microscint 0 using a Microbeta2 2450 microplate-reader (Perkin Elmer).

The target in assay [3] is T1, V1aR (V1a receptor). As to the kind of experiment: HTRF-IP1 accumulation assay, antagonist assessment. In kind it is cell-based. To be noted: against EC70 concentration of vasopressin.
Assay [4] has as its target T2, OXTR (OT receptor) (Homo sapiens, UniProt P30559).
T2 sequence (P30559 1-389): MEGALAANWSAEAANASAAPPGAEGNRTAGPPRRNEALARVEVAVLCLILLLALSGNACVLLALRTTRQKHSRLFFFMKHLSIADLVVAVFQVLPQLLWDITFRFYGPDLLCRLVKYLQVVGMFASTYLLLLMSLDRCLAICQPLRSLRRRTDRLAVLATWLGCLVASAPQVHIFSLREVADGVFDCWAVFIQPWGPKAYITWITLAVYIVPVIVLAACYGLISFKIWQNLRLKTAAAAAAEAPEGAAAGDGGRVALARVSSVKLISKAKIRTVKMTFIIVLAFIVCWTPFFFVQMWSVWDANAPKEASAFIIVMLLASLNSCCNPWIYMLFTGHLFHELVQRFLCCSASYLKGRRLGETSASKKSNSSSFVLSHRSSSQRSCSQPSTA
As to the kind of experiment: HTRF-IP1 accumulation assay, antagonist assessment. In kind it is cell-based. Set-up: expressed in transfected cells; host or cells: HEK293.

For assay [5], the target named is T2, OXTR (OT receptor). Nature of the assay: Competition radioligand binding assay, [3H]-oxytocin displacement. Also noted: expressed in transfected cells; host or cells: HEK293. The conditions noted are these: membranes from OT receptor-expressing HEK293 cells, [3H]-oxytocin 10 nM. How it is done:
as §1, §2

The subject of a further assay is OXTR or V1aR receptors. Nature of the assay: Activity/selectivity at OXTR or V1aR receptors stated in words. To be noted: OXTR over V1aR.
Assay [6] deals with T2, OXTR (OT receptor). As to the kind of experiment: cell-based. To be noted: for Emax: read-out: Emax (% OXT).

T1 sequence (P37288 whole entry, species assumed): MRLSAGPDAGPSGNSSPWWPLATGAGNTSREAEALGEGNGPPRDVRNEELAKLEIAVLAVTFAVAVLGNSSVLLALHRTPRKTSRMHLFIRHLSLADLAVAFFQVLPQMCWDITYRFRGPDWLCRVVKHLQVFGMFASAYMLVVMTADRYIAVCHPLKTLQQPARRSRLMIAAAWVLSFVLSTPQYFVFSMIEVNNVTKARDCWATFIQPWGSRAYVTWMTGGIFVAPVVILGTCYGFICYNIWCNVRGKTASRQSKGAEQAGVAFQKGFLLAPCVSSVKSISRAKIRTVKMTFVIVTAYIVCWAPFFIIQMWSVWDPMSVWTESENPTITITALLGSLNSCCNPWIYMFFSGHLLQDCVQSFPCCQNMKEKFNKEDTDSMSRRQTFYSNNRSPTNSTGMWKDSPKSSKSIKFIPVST

What is called Emax is the maximal effect, on the per cent scale that the assay sets. In turn, `CC[C@H](C)[C@@H]1NC(=O)[C@H](Cc2ccc(O)cc2)NC(=O)[C@@H](N)CSSC[C@@H](C(=O)N2CCC[C@H]2C(=O)N[C@@H](CC(C)C)C(=O)NCC(N)=O)NC(=O)[C@H](CC(N)=O)NC(=O)[C@H](CCC(N)=O)NC1=O` [Oxytocin, reference compound] gave an Emax on V1aR (V1a receptor) [1] (V1aR, relative to vasopressin) of 82%.
Broadly, the Ki is the dissociation constant of the complex between target and ligand, obtained from inhibition or displacement. The low end stands for tighter binding, the high end for weaker binding. The term IC50 denotes the midpoint of a concentration-inhibition curve. A lower IC50 goes with greater potency in that assay. As usually defined, the EC50 is the midpoint of the concentration-response curve. A higher EC50 goes with lower potency in that assay. Take `CC[C@H](C)[C@@H]1NC(=O)[C@H](Cc2ccc(O)cc2)NC(=O)[C@@H](N)CSSC[C@@H](C(=O)N2CCC[C@H]2C(N)=O)NC(=O)[C@H](CC(N)=O)NC(=O)[C@H](CCC(N)=O)NC1=O` [Metabolite B] (H-CYIQNCP-NH2; disulfide 1-6): the Ki is 105 nM on V1aR (V1a receptor) [2] and 72.6 nM at OXTR (OT receptor) [5]. The IC50 at V1aR (V1a receptor) [3] and against OXTR (OT receptor) [4] was over 10000 nM each time. Also, the “selectivity and activity compared with oxytocin” value in the assay with OXTR or V1aR receptors was “enhanced selectivity and activity”. For the same compound, the EC50 on V1aR (V1a receptor) [1] is over 10000 nM; at OXTR (OT receptor) [6] it was 110 nM. Besides, the Emax on OXTR (OT receptor) [6] is 74.1%.
For the compound `CC[C@H](C)[C@@H]1NC(=O)[C@H](Cc2ccc(O)cc2)NC(=O)[C@@H](N)CSSC[C@@H](C(=O)N2CCC[C@H]2C(=O)N[C@@H](CC(C)C)C(N)=O)NC(=O)[C@H](CC(N)=O)NC(=O)[C@H](CCC(N)=O)NC1=O` [Metabolite A] (H-CYIQNCPL-NH2; disulfide 1-6), the Ki on V1aR (V1a receptor) [2] is 749 nM; on OXTR (OT receptor) [5], 138 nM. Also, the IC50 against V1aR (V1a receptor) [3] and against OXTR (OT receptor) [4] was over 10000 nM each time. The “selectivity and activity compared with oxytocin” value with OXTR or V1aR receptors is “enhanced selectivity and activity”. Further, the EC50 at V1aR (V1a receptor) [1] was over 10000 nM; on OXTR (OT receptor) [6] it was 274 nM. At OXTR (OT receptor) [6], the Emax was determined as 79.2%.
